In publication PMC12396409, “Screening and hit evaluation of a microbial metabolite library against the pathogenic Plasmodium falciparum and Toxoplasma gondii parasites” (International Journal for Parasitology: Drugs and Drug …, 2025):
Read-outs that look alike come from different tables or passages of the source. Where a SMILES comes first, the peptide text is derived from it. [ ]: non-standard residue; d: D form. Hiv = CC(C)[C@H](O)C(=O)O

Tests used:
[1] = test system: P. falciparum 3D7 parasites; assay: P. falciparum growth inhibition assay, 1-cycle (72 h treatment), SYBR DNA staining (library screen at 2 μg/mL and dose-response); assay type: cell-based, Plasmodium falciparum; settings: 72 h; for activity at 2 µg/mL: Plasmodium falciparum
[2] = test system: P. falciparum 3D7 parasites; assay: P. falciparum growth inhibition assay, 2-cycle (120 h treatment), delayed-death screen and dose-response; assay type: cell-based, Plasmodium falciparum; settings: 120 h; for activity at 2 µg/mL: Plasmodium falciparum
[3] = test system: T. gondii RH strain (RH-Tub-eYFP) tachyzoites; assay: microbe, parasite or virus in culture; assay type: cell-based, Toxoplasma gondii; settings: 72 h; for percent parasite growth at 2 µg/mL: Toxoplasma gondii
[4] = P. falciparum, parasite screen 2 μg/mL, % growth, replicate 1
[5] = P. falciparum, parasite screen 2 μg/mL, % growth, replicate 2
[6] = T. gondii, parasite screen 2 μg/mL, % growth, replicate 1
[7] = T. gondii, parasite screen 2 μg/mL, % growth, replicate 2
[8] = P. falciparum, screen at 2 μg/mL, replicate 1
[9] = P. falciparum, screen at 2 μg/mL, replicate 2
[10] = T. gondii, screen at 2 μg/mL, replicate 1
[11] = T. gondii, screen at 2 μg/mL, replicate 2
[12] = library screen at 2 μg/mL, % growth, replicate 1
[13] = library screen at 2 μg/mL, % growth, replicate 2

Row | Compound | Pf_72h_%Growth_Rep1 [1, 4] [%] | Pf_72h_%Growth_Rep2 [1, 5] [%] | Pf_120h_%Growth_Rep1 [2, 4] [%] | Pf_120h_%Growth_Rep2 [2, 5] [%] | Tg_72h_%Growth_Rep1 [3, 6] [%] | Tg_72h_%Growth_Rep2 [3, 7] [%] | Pf_72h_%Growth_Rep1 [1, 8] [%] | Pf_72h_%Growth_Rep2 [1, 9] [%] | Pf_120h_%Growth_Rep1 [2, 8] [%] | Pf_120h_%Growth_Rep2 [2, 9] [%] | Tg_72h_%Growth_Rep1 [3, 10] [%] | Tg_72h_%Growth_Rep2 [3, 11] [%] | also measured
1 | COc1c(O)cc2cc(C)oc(=O)c2c1O [Reticulol] | 1.99 | 0.81 | -0.78 | 4.83 | 97.11 | 97.69 |  |  |  |  |  |  | 
2 | C/C=C/C[C@@H](C)[C@@H](O)[C@H]1C(=O)N[C@@H]([C@@H](C)O)C(=O)N(C)CC(=O)N(C)[C@@H](CC(C)C)C(=O)N[C@@H](C(C)C)C(=O)N(C)[C@@H](CC(C)C)C(=O)N[C@@H](C)C(=O)N[C@H](C)C(=O)N(C)[C@@H](CC(C)C)C(=O)N(C)[C@@H](CC(C)C)C(=O)N(C)[C@@H](C(C)C)C(=O)N1C [Cyclosporin C] |  |  |  |  |  |  | 11.25 | 0.59 | 31.80 | 7.29 | 44.04 | 47.65 | 
3 | CC(C)C[C@@H]1NC(=O)[C@H](C(C)C)NC(=O)[C@H](C(C)C)OC(=O)[C@@H](CC(C)C)NC(=O)[C@@H](C(C)C)NC(=O)[C@H](C(C)C)OC1=O [Sporidesmolide III] (cyclo([Hiv]VL[Hiv][dV][dL])) | 74.67 | 81.35 | 153.85 | 76.17 | 94.68 | 93.28 |  |  |  |  |  |  | 
4 | C/C=C/C[C@@H](C)[C@@H](O)[C@H]1C(=O)N[C@@H](C(C)C)C(=O)N(C)CC(=O)N(C)[C@@H](CC(C)C)C(=O)N[C@@H](C(C)C)C(=O)N(C)[C@@H](CC(C)C)C(=O)N[C@@H](C)C(=O)N[C@H](C)C(=O)N(C)[C@@H](CC(C)C)C(=O)N(C)[C@@H](CC(C)C)C(=O)N(C)[C@@H](C(C)C)C(=O)N1C [Cyclosporin D] |  |  |  |  |  |  | 1.31 | 3.21 | -2.52 | -5.39 | 61.91 | 54.60 | 
5 | C/C=C/c1cc2c(c(=O)o1)[C@H](O)[C@@H](O)[C@H](C)O2 [Radicinol] | 83.85 | 102.30 | 82.58 | 123.93 | 118.35 | 83.89 |  |  |  |  |  |  | 
6 | COC[C@H]1OC(=O)c2coc3c2[C@@]1(C)C1=C(C3=O)[C@@H]2CCC(=O)[C@@]2(C)C[C@H]1OC(C)=O [Wortmannin] |  |  |  |  |  |  |  |  |  |  |  |  | activity at 2 µg/mL ([1]; 3D7, P. falciparum, screen at 2 μg/mL, replicate 1, read-out: Pf_72h_%Growth_Rep1): 88.8%; activity at 2 µg/mL ([1]; 3D7, P. falciparum, screen at 2 μg/mL, replicate 2, read-out: Pf_72h_%Growth_Rep2): 119%; activity at 2 µg/mL ([2]; 3D7, P. falciparum, screen at 2 μg/mL, replicate 1, read-out: Pf_120h_%Growth_Rep1): 109%; activity at 2 µg/mL ([2]; 3D7, P. falciparum, screen at 2 μg/mL, replicate 2, read-out: Pf_120h_%Growth_Rep2): 96.5%; percent parasite growth at 2 µg/mL ([3]; T. gondii, screen at 2 μg/mL, replicate 1, read-out: Tg_72h_%Growth_Rep1): 97.3%; percent parasite growth at 2 µg/mL ([3]; T. gondii, screen at 2 μg/mL, replicate 2, read-out: Tg_72h_%Growth_Rep2): 76.4%
7 | O=C(c1cc(Cl)c(Cl)[nH]1)c1c(O)cccc1O [Pyoluteorin] |  |  |  |  |  |  |  |  |  |  |  |  | activity at 2 µg/mL ([1]; 3D7, 72 h, P. falciparum, parasite screen 2 μg/mL, % growth, replicate 1, read-out: Pf_72h_%Growth_Rep1): 12.8%; activity at 2 µg/mL ([1]; 3D7, 72 h, P. falciparum, parasite screen 2 μg/mL, % growth, replicate 2, read-out: Pf_72h_%Growth_Rep2): 3.08%; activity at 2 µg/mL ([2]; 3D7, 120 h, P. falciparum, parasite screen 2 μg/mL, % growth, replicate 1, read-out: Pf_120h_%Growth_Rep1): 21.2%; activity at 2 µg/mL ([2]; 3D7, 120 h, P. falciparum, parasite screen 2 μg/mL, % growth, replicate 2, read-out: Pf_120h_%Growth_Rep2): 3.32%; percent parasite growth at 2 µg/mL ([3]; T. gondii, parasite screen 2 μg/mL, % growth, replicate 1, read-out: Tg_72h_%Growth_Rep1): -1.3%; percent parasite growth at 2 µg/mL ([3]; T. gondii, parasite screen 2 μg/mL, % growth, replicate 2, read-out: Tg_72h_%Growth_Rep2): -1.92%
8 | CC[C@H]1OC(=O)[C@H](C)[C@@H](O[C@H]2C[C@@](C)(OC)[C@@H](O)[C@H](C)O2)[C@H](C)[C@@H](O[C@@H]2O[C@H](C)C[C@H](N(C)C)[C@H]2O)[C@](C)(O)C[C@@H](C)C(=O)[C@H](C)[C@@H](O)[C@H]1C [Erythromycin B] |  |  |  |  |  |  |  |  |  |  |  |  | Pf_72h_%Growth_Rep1 [1, 12]: 77.77%; Pf_72h_%Growth_Rep2 [1, 13]: 67.71%; Pf_120h_%Growth_Rep1 [2, 12]: 64.18%; Pf_120h_%Growth_Rep2 [2, 13]: 47.52%; Tg_72h_%Growth_Rep1 [3, 12]: 53.14%; Tg_72h_%Growth_Rep2 [3, 13]: 48.82%
9 | C/C=C/[C@H]1O[C@@](O)([C@@H](C)[C@H](O)[C@H](C)[C@H]2OC(=O)/C(OC)=C/C(C)=C/[C@@H](C)[C@@H](O)[C@@H](C)[C@@H](O)[C@H](C)C/C(C)=C/C=C/[C@@H]2OC)C[C@@H](O[C@H]2C[C@@H](O)[C@H](OC(N)=O)[C@@H](C)O2)[C@@H]1C [Concanamycin B] |  |  |  |  |  |  | 2.18 | 1.46 | -3.38 | 8.50 | -1.62 | 0.33 | 
